Where two headings read alike, the source gives them in different places.
How the values were obtained:
MDR1-MDCK monolayer = MDR1-MDCK monolayer permeability assay; type: in vitro ADME; conditions: dog
Method: We characterized the in vitro ADME properties of 8a in preparation for evaluation of this compound in our primary in vivo model in gerbils. […] We were pleased to find that 8a was able to kill 100% of both male and female worms in the gerbil peritoneum when dosed subcutaneously at 100 mg/kg/day for 14 days as a suspension in a nonsolubilizing HEC/Tween vehicle. […] The subsequent assessment of the pharmacokinetics of 8a from these two dosing paradigms provided an interesting observation that we believe to be important in understanding the PK–PD requirements for achieving efficacy in this animal model. […] We had made the same observation in a positive control group using flubendazole at a subcutaneous dose of 10 mg/kg/day for 5 days in the nonsolubilizing HEC/Tween vehicle, namely, that plasma levels of flubendazole were maintained above the in vitro IC50 (4 nM) for over 42 days, consistent with data reported in the literature.[43] […] We next examined 8a in two additional in vivo models, the first where L3 B. pahangi larvae were injected into the peritoneum of gerbils and allowed to develop into adult worms[45] and a second where gerbils were naturally infected by the filarial nematode Litomosoides sigmodontis.[46],[47] In both of these models, 8a was administered subcutaneously at 100 mg/kg for 14 days or orally at 100 mg/kg for 28 days as a suspension. […] Additionally, when plasma obtained from treated animals at necropsy was analyzed for 8a, we observed an outcome similar to that observed in the adult implantation model, e.g., that measurable levels were present at this time point in the subcutaneous-dosed groups but not in the orally dosed groups, weeks after administration of the drug. In a final L. sigmodontis experiment with 8a, we dosed the compound subcutaneously at 300 mg/kg for 7 days as a suspension.

[1] = Metabolic stability in gerbil microsomes; type: in vitro ADME
Method: We characterized the in vitro ADME properties of 8a in preparation for evaluation of this compound in our primary in vivo model in gerbils. […] We were pleased to find that 8a was able to kill 100% of both male and female worms in the gerbil peritoneum when dosed subcutaneously at 100 mg/kg/day for 14 days as a suspension in a nonsolubilizing HEC/Tween vehicle. […] The subsequent assessment of the pharmacokinetics of 8a from these two dosing paradigms provided an interesting observation that we believe to be important in understanding the PK–PD requirements for achieving efficacy in this animal model. […] We had made the same observation in a positive control group using flubendazole at a subcutaneous dose of 10 mg/kg/day for 5 days in the nonsolubilizing HEC/Tween vehicle, namely, that plasma levels of flubendazole were maintained above the in vitro IC50 (4 nM) for over 42 days, consistent with data reported in the literature.[43] […] Additionally, when plasma obtained from treated animals at necropsy was analyzed for 8a, we observed an outcome similar to that observed in the adult implantation model, e.g., that measurable levels were present at this time point in the subcutaneous-dosed groups but not in the orally dosed groups, weeks after administration of the drug. […]

Litomosoides sigmodontis = Litomosoides sigmodontis natural infection in vivo model; conditions: L. sigmodontis, necropsy day 63, QD
Method: We characterized the in vitro ADME properties of 8a in preparation for evaluation of this compound in our primary in vivo model in gerbils. […] We were pleased to find that 8a was able to kill 100% of both male and female worms in the gerbil peritoneum when dosed subcutaneously at 100 mg/kg/day for 14 days as a suspension in a nonsolubilizing HEC/Tween vehicle. […] The subsequent assessment of the pharmacokinetics of 8a from these two dosing paradigms provided an interesting observation that we believe to be important in understanding the PK–PD requirements for achieving efficacy in this animal model. […] We had made the same observation in a positive control group using flubendazole at a subcutaneous dose of 10 mg/kg/day for 5 days in the nonsolubilizing HEC/Tween vehicle, namely, that plasma levels of flubendazole were maintained above the in vitro IC50 (4 nM) for over 42 days, consistent with data reported in the literature.[43] […] We next examined 8a in two additional in vivo models, the first where L3 B. pahangi larvae were injected into the peritoneum of gerbils and allowed to develop into adult worms[45] and a second where gerbils were naturally infected by the filarial nematode Litomosoides sigmodontis.[46],[47] In both of these models, 8a was administered subcutaneously at 100 mg/kg for 14 days or orally at 100 mg/kg for 28 days as a suspension. […] Additionally, when plasma obtained from treated animals at necropsy was analyzed for 8a, we observed an outcome similar to that observed in the adult implantation model, e.g., that measurable levels were present at this time point in the subcutaneous-dosed groups but not in the orally dosed groups, weeks after administration of the drug. In a final L. sigmodontis experiment with 8a, we dosed the compound subcutaneously at 300 mg/kg for 7 days as a suspension. […]
administered their doses at the same time each day and are allowed to feed and drink ad libitum. Gerbils were euthanized following approved institutional protocols. Euthanized animals were weighed and examined for external and visceral pathologies.
The adult Brugia worms were recovered by opening the body cavity and washing the peritoneal cavity with 100 mL of phosphate buffered saline. Male and female worms were counted using a
Litomosoides sigmodontis natural infection in vivo model
All animal experiments with L. sigmodontis were conducted at the Institute for Medical Microbiology, Immunology and Parasitology
(IMMIP), University Hospital of Bonn, in accordance to the European Union animal welfare guidelines. All protocols were approved by the local authorities (Landesamt für Natur, Umwelt […]
from Janvier (Saint-Berthevin, France) and were housed at the animal facility of the IMMIP in individually ventilated cages on a 12h light/dark cycle with food and water ad libidum. Mice were infected at 6-8 weeks of age via exposure to the natural mite vector Ornithonyssus bacoti containing infectious L. sigmodontis
L3 larvae. To compare the infection, the same batch of mite-containing bedding was used to infect all animals of one experiment. 35 days post infection, a time point adult worms have developed within the thoracic cavity, mice were treated per oral gavage with the test compounds at concentrations indicated in the result section. As a vehicle, 1% CMC + 0.1% Tween80 was used. Negative controls were treated with vehicle and as positive control, mice were treated orally with doxycycline
(Sigma) in 10% DMSO/1xPBS. Necropsies were performed at 64-77

rat whole embryo culture = system: rat whole embryo culture; parameters: method as in PMID 23287076, PMID 24994687; conditions: cited from earlier work
pregnant female rats = system: pregnant female rats; parameters: method as in PMID 23287076, PMID 24994687; conditions: dosed to pregnant female rats; cited from earlier work
micronucleus [2] = system: micronucleus; parameters: method as in PMID 26443851; conditions: in vitro; cited from earlier work
micronucleus [3] = system: micronucleus; parameters: method as in PMID 26443851; conditions: in vivo; cited from earlier work
[4] = 100 mg/kg × 28 days, PO (suspension)
[5] = 300 mg/kg × 7 days, SC (suspension)

Compound	Papp with Pgp efflux inhibitor GF-120918 (MDR1-MDCK monolayer)	microsomal CLint [1]	adult worm reduction (Litomosoides sigmodontis; [4])	animals with no worms (Litomosoides sigmodontis; [4])	adult worm reduction (Litomosoides sigmodontis; [5])	animals with no worms (Litomosoides sigmodontis; [5])	adult worm reduction (Litomosoides sigmodontis; 10 mg/kg × 5 days, SC)	animals with no worms (Litomosoides sigmodontis; 10 mg/kg × 5 days, SC)	embryotoxicity (rat whole embryo culture)	embryotoxicity (pregnant female rats)	micronucleus test result (micronucleus [2])	micronucleus test result (micronucleus [3])
COC(=O)Nc1nc2cc(C(=O)NCc3ccc4c(c3)B(O)OC4(C)C)ccc2[nH]1 [8a]	2.7 × 10^–6 cm/s	< 4 µL/min/mg	–135.3%	0%	100%/100%	100%/100%	–	–	–	–	–	–
COC(=O)Nc1nc2cc(C(=O)c3ccc(F)cc3)ccc2[nH]1 [compound 1, Flubendazole, reference compound]	–	–	–	–	–	–	100%/100%	100%/100%	potentially embryotoxic	potentially embryotoxic	aneugen	aneugen

Reference: PMC7026885, “Macrofilaricidal Benzimidazole–Benzoxaborole Hybrids as an Approach to the Treatment of River Blindness: Part 1. Amide Linked Analogs” (ACS Infectious Diseases, 2019)
